From ChEMBL document CHEMBL3885861, “Open TG-GATES”

Organism: Rattus norvegicus
Assay: Open TG-GATES - Regimen: Daily Repeat
Assay type: toxicity, organism-based, Sprague-Dawley
Set-up: regimen Daily Repeat, gender Male, age 6 weeks
Conditions: in vivo, po, route gavage; for APTT / Bas / Eos / Fbg / Hb / Ht / Lym / MCHC / MCV / Mono / Neu / PT / Plat / RBC / Ret / WBC / MCH: tissue Blood; for KIDNEY_L / KIDNEY_R / KIDNEY_TOTAL: tissue Kidney; for LIVER: tissue Liver; for ALP / ALT / AST / BUN / CRE / Ca / DBIL / GLC / K / LDH / Na / PL / RALB / TBIL / TC / TG / TP / gamma-GTP: tissue Plasma
[1] = 0 mg/kg, 72 h, dose level Control, time 3 day
[2] = 0 mg/kg, […], dose level Control, time 7 day
[3] = 0 mg/kg, […], dose level Control, time 14 day
[4] = 0 mg/kg, […], dose level Control, time 28 day
[5] = 20 mg/kg, 72 h, dose level Low, time 3 day
[6] = 20 mg/kg, […], dose level Low, time 7 day
[7] = 20 mg/kg, […], dose level Low, time 14 day
[8] = 20 mg/kg, […], dose level Low, time 28 day

What does the source list for CCCCc1oc2ccccc2c1C(=O)c1cc(I)c(OCCN(CC)CC)c(I)c1 [AMIODARONE]?
TERMINAL_BW [1]: 226.9 g; APTT [1]: 18.2 s; Bas [1]: 0%; Eos [1]: 0.8%; Fbg [1]: 229 mg/dL; Hb [1]: 13.5 g/dL; Ht [1]: 39.6%; Lym [1]: 74.8%; MCHC [1]: 34.1%; MCV [1]: 62.7 fL; Mono [1]: 3%; Neu [1]: 20.4%; PT [1]: 12.3 s; Plat [1]: 122.3 x10_4/uL; RBC [1]: 631.4 x10_4/ul; Ret [1]: 6.4%; WBC [1]: 91.2 x10_2/uL; KIDNEY_L [1]: 1 g; KIDNEY_R [1]: 1 g; KIDNEY_TOTAL [1]: 2 g; LIVER [1]: 11.2 g; ALP [1]: 985.8 IU/L; ALT [1]: 37.8 IU/L; AST [1]: 72.6 IU/L; BUN [1]: 16.2 mg/dL; CRE [1]: 0.4 mg/dL; Ca [1]: 10.9 mg/dL; DBIL [1]: 0.096 mg/dL; GLC [1]: 207.4 mg/dL; K [1]: 3.9 meq/L; LDH [1]: 213 IU/L; Na [1]: 140.6 meq/L; PL [1]: 162.4 mg/dL; RALB [1]: 3.5 g/dL; TBIL [1]: 0.1 mg/dL; TC [1]: 77.6 mg/dL; TG [1]: 113.2 mg/dL; TP [1]: 5.8 g/dL; gamma-GTP [1]: 1 IU/L; TERMINAL_BW [2]: 253.9 g; TERMINAL_BW [3]: 312.1 g; TERMINAL_BW [4]: 382 g; APTT [2]: 19.5 s; Bas [2]: 0%; Eos [2]: 1%; Fbg [2]: 218.2 mg/dL; Hb [2]: 13.6 g/dL; Ht [2]: 39.8%; Lym [2]: 78.4%; MCH [2]: 21.2 pg; MCV [2]: 61.9 fL; Mono [2]: 2.4%; Neu [2]: 17%; PT [2]: 12 s; Plat [2]: 117.4 x10_4/uL; RBC [2]: 642.8 x10_4/ul; Ret [2]: 5.1%; WBC [2]: 102.5 x10_2/uL; APTT [3]: 19.9 s; Bas [3]: 0%; Eos [3]: 0.8%; Fbg [3]: 231.8 mg/dL; Hb [3]: 14.4 g/dL; Ht [3]: 41.2%; Lym [3]: 81.4%; MCH [3]: 20.9 pg; MCHC [3]: 34.8%; MCV [3]: 59.9 fL; Mono [3]: 2.8%; Neu [3]: 13.8%; Plat [3]: 128.6 x10_4/uL; RBC [3]: 689.2 x10_4/ul; Ret [3]: 4.6%; WBC [3]: 85.2 x10_2/uL; APTT [4]: 21.2 s; Bas [4]: 0%; Eos [4]: 1%; Fbg [4]: 224.6 mg/dL; Hb [4]: 15.5 g/dL; Ht [4]: 43.9%; Lym [4]: 78.4%; MCH [4]: 19.9 pg; MCHC [4]: 35.4%; MCV [4]: 56.3 fL; Mono [4]: 2.4%; Neu [4]: 17.2%; PT [4]: 12.4 s; Plat [4]: 111.1 x10_4/uL; RBC [4]: 779.2 x10_4/ul; Ret [4]: 2.6%; WBC [4]: 92.4 x10_2/uL; KIDNEY_L [2]: 1.1 g; KIDNEY_R [2]: 1.1 g; KIDNEY_TOTAL [2]: 2.2 g; KIDNEY_L [3]: 1.2 g; KIDNEY_R [3]: 1.2 g; KIDNEY_TOTAL [3]: 2.5 g; KIDNEY_L [4]: 1.4 g; KIDNEY_R [4]: 1.3 g; KIDNEY_TOTAL [4]: 2.7 g; LIVER [2]: 12.1 g; LIVER [3]: 14.6 g; LIVER [4]: 15 g; ALP [2]: 963.6 IU/L; ALT [2]: 34 IU/L; AST [2]: 62.6 IU/L; BUN [2]: 16.6 mg/dL; CRE [2]: 0.4 mg/dL; Ca [2]: 10.6 mg/dL; DBIL [2]: 0.1 mg/dL; GLC [2]: 209.6 mg/dL; K [2]: 3.8 meq/L; LDH [2]: 179.6 IU/L; Na [2]: 140.4 meq/L; PL [2]: 158.4 mg/dL; RALB [2]: 3.4 g/dL; TBIL [2]: 0.2 mg/dL; TC [2]: 73.6 mg/dL; TG [2]: 116.6 mg/dL; TP [2]: 5.6 g/dL; gamma-GTP [2]: 1.6 IU/L; ALP [3]: 896.2 IU/L; ALT [3]: 40.6 IU/L; AST [3]: 70.8 IU/L; BUN [3]: 16.6 mg/dL; CRE [3]: 0.5 mg/dL; Ca [3]: 10.7 mg/dL; DBIL [3]: 0.09 mg/dL; GLC [3]: 233.8 mg/dL; K [3]: 3.5 meq/L; LDH [3]: 206.4 IU/L; Na [3]: 140.2 meq/L; PL [3]: 160.8 mg/dL; RALB [3]: 3.5 g/dL; TBIL [3]: 0.2 mg/dL; TG [3]: 117 mg/dL; TP [3]: 6 g/dL; gamma-GTP [3]: 1 IU/L; ALP [4]: 614.8 IU/L; ALT [4]: 37.6 IU/L; AST [4]: 61.6 IU/L; BUN [4]: 17.4 mg/dL; CRE [4]: 0.4 mg/dL; Ca [4]: 10.4 mg/dL; DBIL [4]: 0.1 mg/dL; GLC [4]: 214.4 mg/dL; K [4]: 3.7 meq/L; LDH [4]: 158.6 IU/L; Na [4]: 140.2 meq/L; PL [4]: 151 mg/dL; RALB [4]: 3.4 g/dL; TBIL [4]: 0.2 mg/dL; TC [4]: 67 mg/dL; TG [4]: 152.4 mg/dL; TP [4]: 6 g/dL; gamma-GTP [4]: 1 IU/L; TERMINAL_BW [5]: 226.2 g; Bas [5]: 0%; Eos [5]: 0.8%; Fbg [5]: 227.8 mg/dL; Hb [5]: 13.5 g/dL; Ht [5]: 39%; Lym [5]: 78.2%; MCH [5]: 22.1 pg; MCV [5]: 63.9 fL; Mono [5]: 3%; Neu [5]: 16.6%; PT [5]: 12.8 s; Plat [5]: 125.2 x10_4/uL; RBC [5]: 610.8 x10_4/ul; Ret [5]: 6.1%; WBC [5]: 101.8 x10_2/uL; KIDNEY_L [5]: 1 g; KIDNEY_R [5]: 1 g; KIDNEY_TOTAL [5]: 2.1 g; LIVER [5]: 11 g; ALP [5]: 1159.8 IU/L; ALT [5]: 38.8 IU/L; AST [5]: 71 IU/L; BUN [5]: 17 mg/dL; CRE [5]: 0.4 mg/dL; Ca [5]: 10.7 mg/dL; DBIL [5]: 0.088 mg/dL; GLC [5]: 200 mg/dL; K [5]: 3.8 meq/L; LDH [5]: 215.2 IU/L; Na [5]: 140.4 meq/L; PL [5]: 144.2 mg/dL; RALB [5]: 3.4 g/dL; TBIL [5]: 0.1 mg/dL; TC [5]: 72.8 mg/dL; TG [5]: 88.8 mg/dL; TP [5]: 5.7 g/dL; gamma-GTP [5]: 1.6 IU/L; TERMINAL_BW [6]: 267.4 g; TERMINAL_BW [7]: 322 g; TERMINAL_BW [8]: 379.8 g; APTT [6]: 18.5 s; Bas [6]: 0%; Eos [6]: 0.8%; Fbg [6]: 222 mg/dL; Ht [6]: 39.1%; Lym [6]: 79.6%; MCH [6]: 21.1 pg; MCHC [6]: 34.1%; MCV [6]: 62 fL; Mono [6]: 2.8%; Neu [6]: 15.6%; Plat [6]: 126.6 x10_4/uL; RBC [6]: 630 x10_4/ul; Ret [6]: 6.1%; WBC [6]: 117.1 x10_2/uL; APTT [7]: 19.7 s; Bas [7]: 0%; Eos [7]: 1%; Fbg [7]: 216.8 mg/dL; Hb [7]: 14.2 g/dL; Ht [7]: 41.2%; Lym [7]: 79.6%; MCH [7]: 20.4 pg; MCV [7]: 59.2 fL; Mono [7]: 2.8%; Neu [7]: 15.6%; PT [7]: 12.8 s; Plat [7]: 116.8 x10_4/uL; RBC [7]: 696.4 x10_4/ul; Ret [7]: 4.6%; WBC [7]: 84.5 x10_2/uL; APTT [8]: 19.6 s; Bas [8]: 0%; Eos [8]: 1.2%; Fbg [8]: 221.6 mg/dL; Ht [8]: 43.5%; Lym [8]: 78.2%; MCH [8]: 19.6 pg; MCHC [8]: 35.1%; MCV [8]: 56 fL; Mono [8]: 2.8%; Neu [8]: 16.6%; PT [8]: 12.3 s; Plat [8]: 109.6 x10_4/uL; RBC [8]: 777.2 x10_4/ul; Ret [8]: 2.7%; WBC [8]: 117.6 x10_2/uL; KIDNEY_L [6]: 1.1 g; KIDNEY_R [6]: 1.1 g; KIDNEY_TOTAL [6]: 2.2 g; KIDNEY_L [7]: 1.3 g; KIDNEY_R [7]: 1.3 g; KIDNEY_TOTAL [7]: 2.5 g; KIDNEY_L [8]: 1.3 g; KIDNEY_R [8]: 1.3 g; KIDNEY_TOTAL [8]: 2.6 g; LIVER [6]: 12.7 g; LIVER [7]: 14.6 g; LIVER [8]: 15.5 g; ALP [6]: 1065 IU/L; ALT [6]: 33 IU/L; AST [6]: 61.8 IU/L; CRE [6]: 0.4 mg/dL; Ca [6]: 10.7 mg/dL; DBIL [6]: 0.1 mg/dL; GLC [6]: 216.6 mg/dL; K [6]: 3.8 meq/L; LDH [6]: 197.4 IU/L; Na [6]: 140.6 meq/L; RALB [6]: 3.3 g/dL; TBIL [6]: 0.2 mg/dL; TC [6]: 70.8 mg/dL; TG [6]: 89.4 mg/dL; TP [6]: 5.5 g/dL; gamma-GTP [6]: 1.2 IU/L; ALP [7]: 861.4 IU/L; ALT [7]: 38 IU/L; AST [7]: 63.6 IU/L; BUN [7]: 17.4 mg/dL; CRE [7]: 0.4 mg/dL; Ca [7]: 10.5 mg/dL; DBIL [7]: 0.1 mg/dL; GLC [7]: 220.6 mg/dL; K [7]: 4 meq/L; LDH [7]: 196.2 IU/L; Na [7]: 139.6 meq/L; PL [7]: 161.6 mg/dL; RALB [7]: 3.3 g/dL; TBIL [7]: 0.2 mg/dL; TC [7]: 81.2 mg/dL; TG [7]: 148.2 mg/dL; TP [7]: 5.7 g/dL; gamma-GTP [7]: 1.4 IU/L; ALP [8]: 765.6 IU/L; ALT [8]: 40 IU/L; AST [8]: 66.2 IU/L; BUN [8]: 18.2 mg/dL; CRE [8]: 0.5 mg/dL; Ca [8]: 10.5 mg/dL; DBIL [8]: 0.1 mg/dL; GLC [8]: 213.2 mg/dL; K [8]: 3.8 meq/L; LDH [8]: 192.6 IU/L; Na [8]: 140.4 meq/L; PL [8]: 160.8 mg/dL; RALB [8]: 3.5 g/dL; TBIL [8]: 0.2 mg/dL; TC [8]: 73.8 mg/dL; TG [8]: 164.6 mg/dL; TP [8]: 6.1 g/dL; gamma-GTP [8]: 1.4 IU/L
